In brackets after ≈: the same amount, converted by molar mass. Like-named read-outs stand apart in the source and are kept apart here.
Experiments:
[1] = system: Vancomycin intermediate-resistant Staphylococcus aureus Mu50; assay: In vitro infectivity assay (MIC), Exp. Ex. 2-1; format: cell-based; conditions: Gram-positive, microdilution, MIC after 24 h
Protocol: (§1) The antibacterial activities were measured based on broth dilution techniques of international standards (Clinical Laboratory Standards Institute: CLSI). The activities were shown by minimum inhibitory concentrations (MICs) determined by inoculating the above-mentioned strains at a concentration of about 10^5 […] into Mueller-Hinton broth (manufactured by Difco) containing 0.85% NaCl in 96-well microplates and incubating the plates at 35° C. for 24 hours. Measurement was carried out three times.
(§2) The antibacterial activities of the compounds of the present invention against various strains such as vancomycin-resistant enterococci (VRE), vancomycin intermediate-resistant Staphylococcus aureus (VISA), methicillin-resistant Staphylococcus aureus (MRSA), and methicillin-sensitive Staphylococcus aureus (MSSA) were examined. Of the bacteria used in MIC measurement in this test example, clinical bacteria of MRSA (OM481 strain and OM584 strain) were supplied from Okayama University Hospital (Japan). An MRSA strain N315, a vancomycin intermediate-resistant Staphylococcus aureus (VISA) strain Mu50, and a methicillin-sensitive Staphylococcus aureus (MSSA) strain FDA 209P were used as controls. Vancomycin-resistant enterococcus (VRE) strains NCTC 12201 and FN-1 were supplied from the National Institute of Infectious Disease (Japan).

[2] = system: Vancomycin-resistant enterococci FN-1; assay: In vitro infectivity assay (MIC), Exp. Ex. 2-1; format: cell-based; conditions: Gram-positive, microdilution, MIC after 24 h
Protocol: as §1, §2

[3] = system: Vancomycin-resistant enterococci NCTC 12201; assay: In vitro infectivity assay (MIC), Exp. Ex. 2-1; format: cell-based; conditions: Gram-positive, microdilution, MIC after 24 h
Protocol: as §1, §2

[4] = system: Methicillin sensitive S. aureus 209P; assay: In vitro infectivity assay (MIC), Exp. Ex. 2-1; format: cell-based, Staphylococcus aureus; conditions: Gram-positive, microdilution, MIC after 24 h
Protocol: as §1, §2

[5] = system: Methicillin-resistant S. aureus COL; assay: In vitro infectivity assay (MIC), Exp. Ex. 2-1; format: cell-based, Staphylococcus aureus; conditions: Gram-positive, microdilution, MIC after 24 h
Protocol: as §1, §2

[6] = system: Methicillin-resistant S. aureus N315; assay: In vitro infectivity assay (MIC), Exp. Ex. 2-1; format: cell-based, Staphylococcus aureus; conditions: Gram-positive, microdilution, MIC after 24 h
Protocol: as §1, §2

[7] = system: Methicillin-resistant S. aureus OM481; assay: In vitro infectivity assay (MIC), Exp. Ex. 2-1; format: cell-based, Staphylococcus aureus; conditions: Gram-positive, microdilution, MIC after 24 h
Protocol: as §1, §2

[8] = system: Methicillin-resistant S. aureus OM584; assay: In vitro infectivity assay (MIC), Exp. Ex. 2-1; format: cell-based, Staphylococcus aureus; conditions: Gram-positive, microdilution, MIC after 24 h
Protocol: as §1, §2

[9] = system: Streptococcus pneumoniae R6; assay: In vitro infectivity assay (MIC), Exp. Ex. 2-1; format: cell-based; conditions: Gram-positive, microdilution, MIC after 24 h
[10] = system: Escherichia coli K-12; assay: Antibacterial activity (MIC) against Gram-negative strains, microdilution; format: cell-based; conditions: for MIC (Gram-nagative) K-12: MIC after 24 h
Protocol: as §1

[11] = system: Pseodomonas aeruginosa PAOI; assay: as above; format: cell-based; conditions: MIC after 24 h
Protocol: as §1

[12] = target: T1, E. coli DNA gyrase (Escherichia coli, UniProt P0AES4+P0AES6); assay: DNA gyrase inhibition (supercoiling kit), Exp. Ex. 2-2; format: biochemical
T1 construct: purchased John Innes Enterprises #K0001
Protocol: As a kit for measurement of DNA gyrase of Escherichia coli, a product purchased from John Innes Enterprises (Gyrase Supercoiling assay kit #K0001) was used. Relaxed DNA was modified with gyrase into supercoiled DNA, and reaction products were separated by electrophoresis depending on the sizes of the molecular weights to examine anti-gyrase effects (IC50). 1 unit (1 U) of DNA gyrase and […] of relaxed pBR322 DNA were added to […] of the reaction solution, and the mixture was allowed to react at 37° C. for 30 minutes in the presence of 35 mM Tris-HCl (pH 7.5), 24 mM KCl, 4 mM MgCl2, 2 mM DTT, 1.8 mM spermidine, 1 mM ATP, 6.5% (w/v) glycerol, and 0.1 mg/ml BSA. The reactions were stopped using […] of a reaction stop solution (40% sucrose, 100 mM Tris-HCl (pH 7.5), 1 mM EDTA, 0.5 mg/ml bromophenol blue).

[13] = target: T2, Escherichia coli Topoisomerase IV (Escherichia coli, UniProt P0AFI2+P20083); assay: Topoisomerase IV inhibition (decatenation kit), Exp. Ex. 2-3; format: biochemical; conditions: decatenation of kDNA, 37° C., 30 minutes; read-out: IC50 (E. coli topoisomerase IV inhibitions)
T2 construct: purchased John Innes Enterprises
Protocol: (§3) Staphylococcus aureus Topoisomerase IV and Escherichia coli Topoisomerase IV were purchased from John Innes Enterprises. 1 unit of topoisomerase IV was cultured with 200 ng of kinetoplast DNA (kDNA) in 30 L of a reaction solution at 37° C. for 30 minutes under the conditions of 50 mM Tris-HCl (pH 7.5) (S. aureus)/50 mM HEPES-KOH (pH 7.6) (E. coli), 5 mM MgCl2 (S. aureus)/5 mM magnesium acetate (E. coli), 350 mM potassium glutamate (S. aureus)/100 mM potassium glutamate (E. coli), 5 mM dithiotheri (S. aureus)/10 mM dithiotheri (E. coli), 1.5 mM ATP (S. aureus)/1 mM ATP (E. coli), and 40% (w/v) glycerol. The reactions were stopped by adding 8 L of a reaction stop solution (40% sucrose, 100 mM Tris.HCl (pH 7.5), 1 mM EDTA, 0.5 mg/ml bromophenol blue). Agarose gel (1.0%) was poured into TAE (40 mM Tris acetate, 2 mM EDTA).

[14] = target: T3, Staphylococcus aureus Topoisomerase IV (Staphylococcus aureus, UniProt P0C1S7+P0C1U9); assay: as above; format: biochemical
T3 construct: purchased John Innes Enterprises
Protocol: as §3

[15] = supercoiling activity, 37° C., 30 minutes, read-out: IC50 (E. coli DNA gyrase inhibitions)
[16] = decatenation of kDNA, 37° C., 30 minutes, read-out: IC50 (S. aureus topoisomerase IV inhibitions)

T1 sequence (P0AES4 whole entry, one chain of several): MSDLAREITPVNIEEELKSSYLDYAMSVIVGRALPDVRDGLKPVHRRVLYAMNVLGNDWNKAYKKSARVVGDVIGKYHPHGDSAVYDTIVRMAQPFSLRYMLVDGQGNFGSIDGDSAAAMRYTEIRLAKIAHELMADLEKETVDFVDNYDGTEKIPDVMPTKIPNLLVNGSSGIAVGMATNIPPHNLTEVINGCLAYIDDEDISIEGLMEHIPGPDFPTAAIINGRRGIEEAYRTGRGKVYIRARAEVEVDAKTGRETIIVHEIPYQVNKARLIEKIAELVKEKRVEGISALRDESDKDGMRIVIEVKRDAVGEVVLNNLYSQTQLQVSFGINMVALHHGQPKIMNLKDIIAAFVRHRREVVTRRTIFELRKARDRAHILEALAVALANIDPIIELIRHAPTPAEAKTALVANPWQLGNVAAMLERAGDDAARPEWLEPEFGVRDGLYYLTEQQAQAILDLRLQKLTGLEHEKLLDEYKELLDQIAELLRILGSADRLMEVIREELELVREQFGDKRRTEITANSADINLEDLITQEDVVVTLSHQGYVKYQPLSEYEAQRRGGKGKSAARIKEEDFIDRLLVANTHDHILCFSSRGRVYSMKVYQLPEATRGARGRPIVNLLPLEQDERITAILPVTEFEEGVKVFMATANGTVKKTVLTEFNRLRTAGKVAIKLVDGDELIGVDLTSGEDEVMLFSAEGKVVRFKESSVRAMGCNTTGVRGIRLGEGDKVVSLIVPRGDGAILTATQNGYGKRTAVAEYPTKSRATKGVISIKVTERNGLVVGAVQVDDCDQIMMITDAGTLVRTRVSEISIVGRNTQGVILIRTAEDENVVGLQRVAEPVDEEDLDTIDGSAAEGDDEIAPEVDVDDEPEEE
T3 sequence (P0C1U9 whole entry): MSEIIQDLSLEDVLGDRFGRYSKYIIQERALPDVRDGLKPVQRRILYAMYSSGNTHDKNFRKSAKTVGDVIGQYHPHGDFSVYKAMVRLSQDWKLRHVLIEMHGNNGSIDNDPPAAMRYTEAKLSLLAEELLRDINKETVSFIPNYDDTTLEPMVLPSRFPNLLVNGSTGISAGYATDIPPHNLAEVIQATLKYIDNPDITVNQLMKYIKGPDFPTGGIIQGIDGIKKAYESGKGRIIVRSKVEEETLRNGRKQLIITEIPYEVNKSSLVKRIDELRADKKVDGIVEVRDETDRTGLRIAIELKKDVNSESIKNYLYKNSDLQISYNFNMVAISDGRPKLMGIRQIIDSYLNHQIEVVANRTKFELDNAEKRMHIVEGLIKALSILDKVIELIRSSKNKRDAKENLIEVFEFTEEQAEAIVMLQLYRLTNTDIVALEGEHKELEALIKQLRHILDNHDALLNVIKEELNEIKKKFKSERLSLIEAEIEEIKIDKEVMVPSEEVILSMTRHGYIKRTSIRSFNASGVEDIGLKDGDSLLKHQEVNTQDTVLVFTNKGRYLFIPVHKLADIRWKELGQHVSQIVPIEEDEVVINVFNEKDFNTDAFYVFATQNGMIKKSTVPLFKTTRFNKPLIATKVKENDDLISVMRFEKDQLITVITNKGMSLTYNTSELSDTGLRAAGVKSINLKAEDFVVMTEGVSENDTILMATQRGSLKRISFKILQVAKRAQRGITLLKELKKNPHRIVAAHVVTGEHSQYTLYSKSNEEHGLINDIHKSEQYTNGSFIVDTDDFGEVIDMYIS
T3 sequence (P0C1S7 whole entry): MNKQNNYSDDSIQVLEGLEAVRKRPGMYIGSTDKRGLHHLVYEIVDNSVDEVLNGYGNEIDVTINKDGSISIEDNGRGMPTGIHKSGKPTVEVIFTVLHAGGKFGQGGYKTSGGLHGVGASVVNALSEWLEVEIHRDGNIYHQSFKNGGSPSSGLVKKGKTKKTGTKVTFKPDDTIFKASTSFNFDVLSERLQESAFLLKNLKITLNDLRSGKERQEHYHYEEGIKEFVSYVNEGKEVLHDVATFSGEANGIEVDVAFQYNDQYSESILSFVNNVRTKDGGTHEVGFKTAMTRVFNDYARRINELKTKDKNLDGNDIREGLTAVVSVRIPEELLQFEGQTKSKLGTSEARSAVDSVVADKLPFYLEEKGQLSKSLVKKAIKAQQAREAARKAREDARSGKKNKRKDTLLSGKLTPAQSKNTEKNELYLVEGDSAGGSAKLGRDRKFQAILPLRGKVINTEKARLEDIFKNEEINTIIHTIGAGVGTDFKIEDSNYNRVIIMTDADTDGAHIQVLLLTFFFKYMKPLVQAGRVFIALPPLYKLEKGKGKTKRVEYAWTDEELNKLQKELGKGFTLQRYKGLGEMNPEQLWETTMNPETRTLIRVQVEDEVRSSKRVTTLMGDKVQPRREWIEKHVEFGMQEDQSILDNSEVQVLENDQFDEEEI
T2 sequence (P20083 whole entry): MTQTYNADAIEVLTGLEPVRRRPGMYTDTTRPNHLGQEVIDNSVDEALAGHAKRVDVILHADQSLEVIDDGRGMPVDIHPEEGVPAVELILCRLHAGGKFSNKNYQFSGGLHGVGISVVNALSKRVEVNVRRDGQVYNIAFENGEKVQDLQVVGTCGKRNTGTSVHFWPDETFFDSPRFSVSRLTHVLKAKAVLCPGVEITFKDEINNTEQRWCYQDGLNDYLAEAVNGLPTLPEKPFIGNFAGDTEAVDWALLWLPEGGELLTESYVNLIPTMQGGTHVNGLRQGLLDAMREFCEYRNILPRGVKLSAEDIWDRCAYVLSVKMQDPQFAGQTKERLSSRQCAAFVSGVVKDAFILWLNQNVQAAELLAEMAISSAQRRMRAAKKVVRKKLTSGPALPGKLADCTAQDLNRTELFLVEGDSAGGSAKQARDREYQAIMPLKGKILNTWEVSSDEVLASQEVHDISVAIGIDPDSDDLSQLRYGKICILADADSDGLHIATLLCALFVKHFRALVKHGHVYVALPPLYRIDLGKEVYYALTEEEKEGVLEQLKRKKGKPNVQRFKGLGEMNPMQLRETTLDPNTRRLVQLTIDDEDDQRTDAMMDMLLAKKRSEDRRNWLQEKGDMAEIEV
T2 sequence (P0AFI2 whole entry): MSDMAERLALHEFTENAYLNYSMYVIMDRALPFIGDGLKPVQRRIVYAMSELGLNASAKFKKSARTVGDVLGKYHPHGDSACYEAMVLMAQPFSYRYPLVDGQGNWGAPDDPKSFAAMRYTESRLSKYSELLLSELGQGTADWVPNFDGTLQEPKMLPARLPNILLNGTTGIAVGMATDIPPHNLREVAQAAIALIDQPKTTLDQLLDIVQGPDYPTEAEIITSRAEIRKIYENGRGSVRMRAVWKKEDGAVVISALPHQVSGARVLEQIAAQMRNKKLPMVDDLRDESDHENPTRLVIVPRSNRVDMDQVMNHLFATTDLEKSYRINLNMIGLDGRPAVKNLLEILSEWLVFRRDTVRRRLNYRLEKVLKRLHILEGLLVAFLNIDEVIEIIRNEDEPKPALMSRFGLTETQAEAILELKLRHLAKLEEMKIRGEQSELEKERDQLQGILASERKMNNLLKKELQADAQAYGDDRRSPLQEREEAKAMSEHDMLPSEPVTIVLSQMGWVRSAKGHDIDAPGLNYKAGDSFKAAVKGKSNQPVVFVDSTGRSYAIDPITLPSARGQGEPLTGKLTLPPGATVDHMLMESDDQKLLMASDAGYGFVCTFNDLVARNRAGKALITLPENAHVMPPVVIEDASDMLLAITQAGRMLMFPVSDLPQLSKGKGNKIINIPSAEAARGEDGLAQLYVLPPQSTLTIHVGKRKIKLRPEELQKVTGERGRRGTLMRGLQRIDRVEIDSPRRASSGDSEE

Row | Structure (SMILES) | MIC VISA Mu50 [1] | MIC VRE FN-1 [2] | MIC VRE NCTC 12201 [3] | MIC MSSA 209P [4] | MIC MRSA COL [5] | MIC MRSA N315 [6] | MIC MRSA OM481 [7] | MIC MRSA OM584 [8] | MIC S. Pneumoniae R6 [9] | MIC (Gram-nagative) K-12 [10] | MIC (Gram-nagative) PAO1 [11] | IC50 [12, 15] | IC50 [13] | IC50 [14, 16] | further results
1 | Cc1ccc(CCC(=O)OC[C@H]2O[C@@H](Oc3c(-c4ccc(O)c(O)c4)oc4cc(O)cc(O)c4c3=O)[C@H](OC(=O)CCc3ccc(C)cc3)[C@@H](O)[C@H]2O)cc1 [Compound 14h, 2-(3′,4′-Dihydroxyphenyl)-5,7-dihydroxy-3-β-D-{2″,6″-di-O-[3′″-(4-methylphenylpropanoyl)]}galactosyl-4H-chromen-4-one] | 0.5 µg/mL (≈ 0.661 µM) | 0.5 µg/mL (≈ 0.661 µM) | 0.5 µg/mL (≈ 0.661 µM) | 0.25 µg/mL (≈ 0.33 µM) | 1 µg/mL (≈ 1.32 µM) | 0.25 µg/mL (≈ 0.33 µM) | 0.25 µg/mL (≈ 0.33 µM) | 0.25 µg/mL (≈ 0.33 µM) | 0.25 µg/mL (≈ 0.33 µM) | >128 µg/mL | >128 µg/mL | 2090 nM | 7.46 µM | 1490 nM | –
2 | O=C(CCCCc1ccc(F)cc1)OC[C@H]1O[C@@H](Oc2c(-c3ccc(O)c(O)c3)oc3cc(O)cc(O)c3c2=O)[C@H](OC(=O)CCCCc2ccc(F)cc2)[C@@H](O)[C@H]1O [Compound 14k, 2-(3′,4′-Dihydroxyphenyl)-5,7-dihydroxy-3-β-D-{2″,6″-di-O-[3′″-(4-fluorophenylpentanoyl)]}galactosyl-4H-chromen-4-one] | 16 µg/mL (≈ 19.5 µM) | 16 µg/mL (≈ 19.5 µM) | 16 µg/mL (≈ 19.5 µM) | 4 µg/mL (≈ 4.87 µM) | 16 µg/mL (≈ 19.5 µM) | 2 µg/mL (≈ 2.44 µM) | 4 µg/mL (≈ 4.87 µM) | 4 µg/mL (≈ 4.87 µM) | 8 µg/mL (≈ 9.75 µM) | >128 µg/mL | >128 µg/mL | 5020 nM | > 12 µM | 4050 nM | –
3 | Cc1ccc(CCC(=O)OCC2OC(Oc3c(-c4ccc(O)c(O)c4)oc4cc(O)cc(O)c4c3=O)C(OC(=O)CCc3ccc(C)cc3)C(O)C2O)cc1 [Compound 14l, 2-(3′,4′-Dihydroxyphenyl)-5,7-dihydroxy-3-β-D-{2″,6″-di-O-[3′″-(4-methylphenylpropanoyl)]}galactosyl-4H-chromen-4-one] | – | – | – | – | – | – | – | – | – | – | – | – | 7.99 µM | – | MIC ([1]; Staphylococcus aureus, VISA, read-out: MIC VISA Mu50): 16 µg/mL (≈ 21.1 µM); MIC ([2]; Enterococcus, VRE, read-out: MIC VRE FN-1): 32 µg/mL (≈ 42.3 µM); MIC ([3]; Enterococcus, NCTC 12201 / VRE, read-out: MIC VRE NCTC 12201): 32 µg/mL (≈ 42.3 µM); MIC ([4]; Staphylococcus aureus, 209P / MSSA, read-out: MIC MSSA 209P): 16 µg/mL (≈ 21.1 µM); MIC ([5]; Staphylococcus aureus, MRSA): 32 µg/mL (≈ 42.3 µM); MIC ([6]; Staphylococcus aureus, MRSA, read-out: MIC MRSA N315): 16 µg/mL (≈ 21.1 µM); MIC ([7]; Staphylococcus aureus, MRSA, read-out: MIC MRSA OM481): 16 µg/mL (≈ 21.1 µM); MIC ([8]; Staphylococcus aureus, MRSA, read-out: MIC MRSA OM584): 16 µg/mL (≈ 21.1 µM); MIC ([9]; Streptococcus pneumoniae, R6, read-out: MIC S. Pneumoniae R6): 32 µg/mL (≈ 42.3 µM); MIC ([10]; K12, MIC after 24 h, read-out: MIC (Gram-nagative) K-12): > 128 µg/mL; MIC ([11]; read-out: MIC (Gram-nagative) PAO1): > 128 µg/mL; IC50 [12]: 1790 nM; IC50 [14]: 2570 nM
4 | O=C(OC[C@H]1O[C@@H](Oc2c(-c3ccc(O)c(O)c3)oc3cc(O)cc(O)c3c2=O)[C@H](OC(=O)c2ccc(F)cc2)[C@@H](O)[C@H]1O)c1ccc(F)cc1 [Compound 14c, 2-(3′,4′-Dihydroxyphenyl)-5,7-dihydroxy-3-β-D-[2″,6″-di-O-(4-fluorobenzoyl)]galactosyl-4H-chromen-4-one] | 2 µg/mL (≈ 2.82 µM) | 4 µg/mL (≈ 5.65 µM) | 4 µg/mL (≈ 5.65 µM) | 4 µg/mL (≈ 5.65 µM) | 8 µg/mL (≈ 11.3 µM) | 8 µg/mL (≈ 11.3 µM) | 2 µg/mL (≈ 2.82 µM) | 2 µg/mL (≈ 2.82 µM) | 4 µg/mL (≈ 5.65 µM) | >128 µg/mL | >128 µg/mL | 380 nM | 7.02 µM | 520 nM | –
5 | O=C(CCCc1ccc(F)cc1)OC[C@H]1O[C@@H](Oc2c(-c3ccc(O)c(O)c3)oc3cc(O)cc(O)c3c2=O)[C@H](OC(=O)CCCc2ccc(F)cc2)[C@@H](O)[C@H]1O [Compound 14j, 2-(3′,4′-Dihydroxyphenyl)-5,7-dihydroxy-3-β-D-{2″,6″-di-O-[3′″-(4-fluorophenylbutanoyl)]}galactosyl-4H-chromen-4-one] | 4 µg/mL (≈ 5.05 µM) | 8 µg/mL (≈ 10.1 µM) | 8 µg/mL (≈ 10.1 µM) | 4 µg/mL (≈ 5.05 µM) | 16 µg/mL (≈ 20.2 µM) | 4 µg/mL (≈ 5.05 µM) | 2 µg/mL (≈ 2.52 µM) | 2 µg/mL (≈ 2.52 µM) | 2 µg/mL (≈ 2.52 µM) | >128 µg/mL | >128 µg/mL | 2980 nM | 8.96 µM | 2940 nM | –
